Nine compounds from patent US20240148821A1, “PHARMACEUTICAL USE OF CYCLIC PEPTIDE COMPOUND” (CHUGAI SEIYAKU KABUSHIKI KAISHA, priority 2021, published 2024) can be followed below.

Bridge positions count the residues as written; N and C are the ends. Square brackets hold non-standard residues; d marks the D form. Peptide text beside a SMILES is read from it. * marks the point of attachment. hPhe(3-Cl-4-CF3) = N[C@@H](CCc1ccc(C(F)(F)F)c(Cl)c1)C(=O)O; NMePhe(3-CN) = CN[C@@H](Cc1cccc(C#N)c1)C(=O)O; NMePhe(4-Me) = CN[C@@H](Cc1ccc(C)cc1)C(=O)O; Phe(2-Cl) = N[C@@H](Cc1ccccc1Cl)C(=O)O; Phe(3-I) = N[C@@H](Cc1cccc(I)c1)C(=O)O; Phe(4-F) = N[C@@H](Cc1ccc(F)cc1)C(=O)O; NMeAla(cPr) = CN[C@@H](CC1CC1)C(=O)O; NMeCha = CN[C@@H](CC1CCCCC1)C(=O)O; NMeChg = CN[C@H](C(=O)O)C1CCCCC1; NMeI = CC[C@H](C)[C@H](NC)C(=O)O; NMeD = CN[C@@H](CC(=O)O)C(=O)O; NMeL = CN[C@@H](CC(C)C)C(=O)O; αMeL = CC(C)C[C@](C)(N)C(=O)O; NMeV = CN[C@H](C(=O)O)C(C)C; d(β3hA) = C[C@@H](N)CC(=O)O; NMeA = CN[C@@H](C)C(=O)O; NMeAib = CNC(C)(C)C(=O)O; Piperidide = C1CCN(*)CC1; Pra = C#CC[C@H](N)C(=O)O; Ac5c = NC1(C(=O)O)CCCC1; Aze = O=C(O)[C@@H]1CCN1; Sar = CNCC(=O)O

For the test, the system named is Human pancreatic cancer cell line AsPC-1 (G12D mutation Kras). Description: AsPC-1 cell growth inhibition (AsPC-1 CGI). The note with it: read-out: AsPC-1 cell growth inhibition, 50% growth inhibitory concentration (IC50 value); 96 hours, CellTiter-Glo, values classified in ranges. The class given is cell-based.
Protocol: Test compounds were serially dilated with dimethyl sulfoxide, and 200 nL was then dispensed to a U-bottom 96-well plate using Labcyte Echo. […] The cell suspension was dispensed to a. plate containing a test compound at 100 μL per well and incubated at 37° C. in a 5% carbon dioxide gas incubator. 96 hours later, 80 μL of CellTiter-Glo (Promega) was added to each well and fluorescence was measured.
For the compound `CC[C@H](C)[C@@H]1NC(=O)[C@H](CC(C)C)N(C)C(=O)C[C@@H](C(=O)N2CCCCC2)N(C)C(=O)[C@H](CC(C)C)NC(=O)C(C)(C)N(C)C(=O)[C@H](Cc2ccc(OC)cc2)NC(=O)[C@H](Cc2cccc(I)c2)NC(=O)CN(C)C(=O)[C@H](Cc2ccc(C)cc2)N(C)C(=O)[C@@H]2CCN2C(=O)[C@H](C)N(C)C1=O` [Compound 703] ([NMeL]I[NMeA][Aze][NMePhe(4-Me)][Sar][Phe(3-I)]Y(Me)[NMeAib]L[NMeD]-Piperidide; lactam N-11), the IC50 is more than 500 nM.

As to `CC[C@H](C)[C@@H]1NC(=O)[C@H](CC(C)C)N(C)C(=O)C[C@@H](C)NC(=O)[C@H](C(C)C)N(C)C(=O)[C@](C)(CC(C)C)NC(=O)[C@@H]2CCCN2C(=O)[C@H](CCc2ccc(C(F)(F)F)c(Cl)c2)NC(=O)CN(C)C(=O)[C@H](CC2CCCCC2)N(C)C(=O)CN(C)C(=O)CN(C)C1=O` [Compound 705] (cyclo(I[Sar][Sar][NMeCha][Sar][hPhe(3-Cl-4-CF3)]P[αMeL][NMeV][d(β3hA)][NMeL])), the IC50 is more than 500 nM.

For `CC[C@H](C)[C@@H]1NC(=O)[C@H](CC(C)C)N(C)C(=O)C[C@@H](C(=O)N2CCCCC2)N(C)C(=O)[C@H](CC(C)C)NC(=O)C(C)(C)N(C)C(=O)[C@H](Cc2ccccc2Cl)NC(=O)[C@H](Cc2cccc(I)c2)NC(=O)CN(C)C(=O)[C@H](Cc2ccc(C)cc2)N(C)C(=O)CN(C)C(=O)CN(C)C1=O` [Compound 706] ([NMeL]I[Sar][Sar][NMePhe(4-Me)][Sar][Phe(3-I)][Phe(2-Cl)][NMeAib]L[NMeD]-Piperidide; lactam N-11), the IC50 is more than 500 nM.

For the compound `CC[C@H](C)[C@@H]1NC(=O)[C@H](CC(C)C)N(C)C(=O)C[C@@H](C)NC(=O)[C@H](CC2CC2)N(C)C(=O)C2(CCCC2)NC(=O)[C@@H]2CCCN2C(=O)[C@H](CCc2ccc(C(F)(F)F)c(Cl)c2)NC(=O)CN(C)C(=O)[C@H](CC2CCCCC2)N(C)C(=O)CN(C)C(=O)CN(C)C1=O` [Compound 707] (cyclo([Ac5c][NMeAla(cPr)][d(β3hA)][NMeL]I[Sar][Sar][NMeCha][Sar][hPhe(3-Cl-4-CF3)]P)), the IC50 is more than 500 nM.

In the case of `CC[C@H](C)[C@@H]1NC(=O)[C@H](CC(C)C)N(C)C(=O)C[C@@H](C(=O)N2CCCCC2)N(C)C(=O)[C@H](C(C)C)N(C)C(=O)C2(CCCC2)NC(=O)[C@@H]2CCCN2C(=O)[C@H](CCc2ccc(C(F)(F)F)c(Cl)c2)NC(=O)CN(C)C(=O)[C@H](Cc2cccc(C#N)c2)N(C)C(=O)CN(C)C(=O)CN(C)C1=O` [Compound 710] ([NMeL]I[Sar][Sar][NMePhe(3-CN)][Sar][hPhe(3-Cl-4-CF3)]P[Ac5c][NMeV][NMeD]-Piperidide; lactam N-11), the IC50 was more than 500 nM.

As to `CC[C@H](C)[C@@H]1NC(=O)[C@H](CC(C)C)N(C)C(=O)C[C@@H](C(=O)N2CCCCC2)N(C)C(=O)[C@H](CC(C)C)NC(=O)C(C)(C)N(C)C(=O)[C@H](Cc2ccc(F)cc2)NC(=O)[C@H](Cc2cccc(I)c2)NC(=O)CN(C)C(=O)[C@H](CC2CCCCC2)N(C)C(=O)CN(C)C(=O)CN(C)C1=O` [Compound 711] ([NMeL]I[Sar][Sar][NMeCha][Sar][Phe(3-I)][Phe(4-F)][NMeAib]L[NMeD]-Piperidide; lactam N-11), the IC50 was more than 500 nM.

`CC[C@H](C)[C@@H]1NC(=O)[C@H](CC(C)C)N(C)C(=O)C[C@@H](C(=O)N(C)C)N(C)C(=O)[C@H]([C@@H](C)CC)N(C)C(=O)[C@H](C)NC(=O)[C@H](C)N(C)C(=O)[C@H](CCc2ccc(C(F)(F)F)c(Cl)c2)NC(=O)CN(C)C(=O)[C@H](Cc2ccc(C)cc2)N(C)C(=O)[C@@H]2CCN2C(=O)[C@H](C)N(C)C1=O` [Compound 715] ([NMeL]I[NMeA][Aze][NMePhe(4-Me)][Sar][hPhe(3-Cl-4-CF3)][NMeA]A[NMeI][NMeD]-NMe2; lactam N-11): the IC50 was more than 500 nM.

`C#CC[C@@H]1NC(=O)[C@H](CC(C)C)N(C)C(=O)C[C@@H](C(=O)N2CCCCC2)N(C)C(=O)[C@H](C2CCCCC2)N(C)C(=O)C2(CCCC2)NC(=O)[C@@H]2CCCN2C(=O)[C@H](CCc2ccc(C(F)(F)F)c(Cl)c2)NC(=O)CN(C)C(=O)[C@H](CC2CCCCC2)N(C)C(=O)CN(C)C(=O)CN(C)C1=O` [Compound 716] ([NMeL][Pra][Sar][Sar][NMeCha][Sar][hPhe(3-Cl-4-CF3)]P[Ac5c][NMeChg][NMeD]-Piperidide; lactam N-11): the IC50 is more than 500 nM.

On to `CC[C@H](C)[C@@H]1NC(=O)[C@H](CC(C)C)N(C)C(=O)C[C@@H](C(=O)N2CCCCC2)N(C)C(=O)[C@H](C2CCCCC2)N(C)C(=O)C2(CCCC2)NC(=O)[C@@H]2CCCN2C(=O)[C@H](CCc2ccc(C(F)(F)F)c(Cl)c2)NC(=O)[C@H](C)N(C)C(=O)[C@H](CC2CCCCC2)N(C)C(=O)CN(C)C(=O)CN(C)C1=O` [Compound 722] ([NMeL]I[Sar][Sar][NMeCha][NMeA][hPhe(3-Cl-4-CF3)]P[Ac5c][NMeChg][NMeD]-Piperidide; lactam N-11), for which the IC50 is more than 500 nM.
